Laboratory results: PubChem BioAssay (NCI)
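Values below derive from 48-hour exposures of cells grown in 96-well plates, with endpoints linearly interpolated between the two concentrations bracketing the appropriate inhibition level. The concentration for 50% growth inhibition is given as GI50. TGI denotes the concentration required for complete inhibition of growth.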

Key:
Experiment in all cases: growth of human tumour cells (NCI), 48 h
[1] = system: 786-0 renal
[2] = system: HOP-92 NSCLC
[3] = system: LOX IMVI melanoma
[4] = system: MALME-3M melanoma
[5] = system: SK-MEL-5 melanoma
[6] = system: SNB-19 CNS
[7] = system: UO-31 renal
[8] = system: MDA-MB-231 breast
[9] = system: SN12C renal
[10] = system: T-47D breast

Row | Compound | TGI [1] | TGI [2] | TGI [3] | TGI [4] | TGI [5] | TGI [6] | TGI [7] | GI50 [1] | GI50 [2] | GI50 [4] | GI50 [8] | TGI [8] | GI50 [5] | GI50 [9] | TGI [9] | GI50 [6] | GI50 [10] | TGI [10] | GI50 [7] | GI50 [3]
1 | CC1=Nn2c(nnc2-c2ccc(N)cc2)NC(C)(C)C1 | > 100 µM | > 100 µM | > 100 µM | > 100 µM | > 100 µM | > 100 µM | > 100 µM | – | – | – | – | – | – | – | – | – | – | – | – | –
2 | N=C(N)c1ccc(-c2ccc(-c3cccs3)s2)nc1 | 3.3 µM | 2.23 µM | – | 3.57 µM | 3.78 µM | 20.8 µM | 3.92 µM | 1.67 µM | 0.46 µM | 1.96 µM | 1.55 µM | 3.39 µM | 1.8 µM | 1.68 µM | 5.38 µM | 3.48 µM | 2.06 µM | 5.57 µM | 0.545 µM | –
3 | COc1cc(/C=C2/C(=O)NC(Cc3cc(OC)c(OC)c(C)c3OC)C(=O)N2Cc2ccccc2)c(OC)c(C)c1OC (stereo unspecified) | > 100 µM | 71.9 µM | > 100 µM | > 100 µM | > 100 µM | > 100 µM | > 100 µM | – | – | – | – | – | – | – | > 100 µM | – | – | – | – | –
4 | Cc1cc(=O)oc2cc(OCc3nc4ccccc4c(=O)[nH]3)ccc12 | > 100 µM | > 100 µM | > 100 µM | > 100 µM | > 100 µM | > 100 µM | – | – | – | – | – | – | – | – | > 100 µM | – | – | – | – | –
5 | COc1cc2cccc(NC(=O)c3cc(OC)c(OC)c(OC)c3Br)c2cc1OC | > 100 µM | – | – | 49.8 µM | 10.6 µM | > 100 µM | 24.2 µM | – | – | – | – | – | – | – | > 100 µM | – | – | – | – | –
6 | CS/C(c1ccccc1)=[N+](/C)[O-] | > 100 µM | > 100 µM | > 58.2 µM | > 100 µM | > 100 µM | > 100 µM | > 100 µM | – | – | – | – | – | – | – | > 100 µM | – | – | – | – | –
7 | O=C(CCCCCCC(=O)Nc1ccc2c(c1)/C(=C/c1ccc[nH]1)C(=O)N2)NO | 26.5 µM | 2.76 µM | 2.08 µM | 35.4 µM | 1.41 µM | 33.2 µM | > 100 µM | 2.37 µM | 0.317 µM | 0.0758 µM | 0.991 µM | 10 µM | 0.24 µM | 2.07 µM | 26.5 µM | 0.585 µM | – | – | 0.963 µM | 0.548 µM
8 | O=C1C[C@H]2CC3(CC[C@H]2CN1)OCCO3 | > 100 µM | > 100 µM | > 100 µM | > 100 µM | > 100 µM | > 100 µM | > 100 µM | – | – | – | – | – | – | – | > 100 µM | – | – | – | – | –
9 | O=C(CN1C(=O)c2ccccc2C1=O)C(O)CN1C(=O)c2ccccc2C1=O (stereo unspecified) | > 100 µM | > 100 µM | > 100 µM | – | > 100 µM | > 100 µM | > 100 µM | – | – | – | – | 50.5 µM | – | – | > 100 µM | – | – | > 100 µM | – | –
10 | Cc1ccc(C2=C(c3ccccc3)C(Br)(c3ccccc3)C(c3ccccc3)=C2c2ccc(C)cc2)cc1 | > 100 µM | > 100 µM | – | > 100 µM | > 100 µM | > 100 µM | > 100 µM | – | – | – | – | – | – | – | > 100 µM | – | – | – | – | –
